Where “and” joins values, the source holds several entries; their conditions need not be identical. Identical values can stand only once. Like-named read-outs stand apart in the source and are kept apart here.
How the values were obtained:
[1] = tested on: Galactose Oxidase; details: dilute (3.5%) saliva; FIG. 13
[2] = tested on: peroxidase; assay: Peroxidase assay in saliva (Amplex Red); assay type: biochemical
Protocol: To determine the effect of various GRAS compounds as inhibitors of peroxidase activity, a standard assay using Amplex® Red (Life Technologies), which releases a fluorescent oxidation product.
The test compounds, such as GRAS materials or cocktails of same, were prepared at a concentration of 500 ppm in distilled water. For the assay, 50 μl samples of test compounds were mixed with 20-30 μl of saliva (either “pooled” or “unpooled”) prior to the addition of Amplex® Red. […] Reactions were allowed to run for 30 minutes during these assays.

[3] = biological target: T1, Lysozyme (Homo sapiens, UniProt P61626); assay: Lysozyme inhibition saliva screening (fluorescein-labeled Micrococcus lysodeikticus); assay type: biochemical; details: for inhibition of Lysozyme: 100% saliva samples (data not shown); for RFU Reading (60 mins): saliva, test compound prepared at 5,000 ppm; for Lysozyme Inhibitor Activity: dilute (3.5%) saliva, FIG. 12
T1 sequence (P61626 19-148): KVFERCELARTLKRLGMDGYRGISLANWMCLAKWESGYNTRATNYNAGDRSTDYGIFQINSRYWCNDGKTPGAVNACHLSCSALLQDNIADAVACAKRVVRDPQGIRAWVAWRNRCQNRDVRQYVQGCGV
Text: Further details of these five compounds may also be seen in Table 5.

[4] = biological target: T2, α-amylase (Homo sapiens, UniProt P0DUB6); assay: α-Amylase inhibition saliva screening (2-chloro-p-nitrophenol-maltotriose substrate, absorbance 405 nm); assay type: biochemical; details: for % Inhibition / % Std: relative to 100% Saliva Control; for α-amylase assay reading (absorbance at 405 nm), single replicate / α-amylase assay reading, Ave: test compound prepared at 5,000 ppm, saliva, 37° C.; for inhibition of α-Amylase: 100% saliva samples, FIG. 11; for α-Amylase Inhibitor Activity: dilute (3.5%) saliva, FIG. 10
T2 sequence (P0DUB6 16-511): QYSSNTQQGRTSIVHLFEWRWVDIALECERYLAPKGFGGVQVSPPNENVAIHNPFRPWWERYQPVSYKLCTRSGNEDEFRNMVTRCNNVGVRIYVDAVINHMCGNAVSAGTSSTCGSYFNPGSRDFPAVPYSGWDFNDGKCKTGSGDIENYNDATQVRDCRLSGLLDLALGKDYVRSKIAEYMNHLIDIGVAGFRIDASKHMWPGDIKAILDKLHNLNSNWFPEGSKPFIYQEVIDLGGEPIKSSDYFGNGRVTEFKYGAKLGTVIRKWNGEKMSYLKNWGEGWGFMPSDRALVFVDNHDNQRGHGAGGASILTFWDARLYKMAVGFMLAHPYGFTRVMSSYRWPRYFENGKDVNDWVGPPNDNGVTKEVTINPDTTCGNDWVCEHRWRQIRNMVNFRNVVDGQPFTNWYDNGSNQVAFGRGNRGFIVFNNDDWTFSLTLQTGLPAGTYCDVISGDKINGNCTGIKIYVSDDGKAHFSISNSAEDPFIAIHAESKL
Text: Further details of these five compounds may also be seen in Table 4.

[5] = 500 ppm, pooled or unpooled saliva, 30 minutes, FIGS. 26-29

## COc1ccc(O)c(C(C)(C)C)c1 [CDI-039, 3-tert--butyl-hydroxyanisole]
[1]
  Galactose Oxidase Inhibitor Activity: shown to have Galactose Oxidase Inhibitor Activity
[2]; [5]
  peroxidase inhibition: significant peroxidase inhibition capabilities

## CC(=O)O [CDI-047, Acetic acid]
[1]
  Galactose Oxidase Inhibitor Activity: shown to have Galactose Oxidase Inhibitor Activity
[3]
  inhibition of Lysozyme: shown to inhibit Lysozyme
  RFU Reading (60 mins): 33.53 RFU
  Lysozyme Inhibitor Activity: shown to have Lysozyme Inhibitor Activity

## O=C(O)c1ccccc1 [CDI #16, Benzoic acid]
[2]
  peroxidase inhibition: significant peroxidase inhibition capabilities

## Aluminum potassium sulfate dodecahydrate [CDI-42]
[1]
  Galactose Oxidase Inhibitor Activity: shown to have Galactose Oxidase Inhibitor Activity
[4]; 0 min
  % Inhibition: 77.07%
  % Std: 22.93%
  α-amylase assay reading (absorbance at 405 nm), single replicate: 0.80 and 1.13 and 0.90 and 0.84
  α-amylase assay reading, Ave: 0.92
[4]
  inhibition of α-Amylase: shown to inhibit α-Amylase
  α-Amylase Inhibitor Activity: shown to have α-Amylase Inhibitor Activity
[4]; 5 min
  % Inhibition: 53.76%
  % Std: 46.24%
  α-amylase assay reading (absorbance at 405 nm), single replicate: 1.65 and 2.15 and 1.80 and 1.81
  α-amylase assay reading, Ave: 1.85
[4]; 15 min
  % Inhibition: 42.65%
  % Std: 57.35%
  α-amylase assay reading (absorbance at 405 nm), single replicate: 2.37 and 2.38 and 2.25 and 2.17
  α-amylase assay reading, Ave: 2.29
[2]; [5]
  peroxidase inhibition: significant peroxidase inhibition capabilities

## O=C(O)c1ccccc1 [CDI-40, Benzoic acid]
[1]
  Galactose Oxidase Inhibitor Activity: shown to have Galactose Oxidase Inhibitor Activity
[3]
  inhibition of Lysozyme: shown to inhibit Lysozyme
  RFU Reading (60 mins): 35.82 RFU
  Lysozyme Inhibitor Activity: shown to have Lysozyme Inhibitor Activity

## Aluminum sulfate hydrate [CDI-34]
[4]; 0 min
  % Inhibition: 89.96%
  % Std: 10.04%
  α-amylase assay reading, Ave: 0.40
[4]; 0 min, sulfate hydrate
  α-amylase assay reading (absorbance at 405 nm), single replicate: 0.40 (2×) and 0.36 and 0.45
[4]
  inhibition of α-Amylase: shown to inhibit α-Amylase
  α-Amylase Inhibitor Activity: shown to have α-Amylase Inhibitor Activity
[4]; 5 min
  % Inhibition: 87.39%
  % Std: 12.61%
  α-amylase assay reading, Ave: 0.50
[4]; 5 min, sulfate hydrate
  α-amylase assay reading (absorbance at 405 nm), single replicate: 0.49 and 0.50 (2×) and 0.52
[4]; 15 min
  % Inhibition: 85.98%
  % Std: 14.02%
  α-amylase assay reading, Ave: 0.56
[4]; 15 min, sulfate hydrate
  α-amylase assay reading (absorbance at 405 nm), single replicate: 0.53 and 0.61 and 0.54 and 0.56

## Cn1c(=O)c2c(ncn2C)n(C)c1=O [CDI #33, Caffeine]
[2]; [5]
  peroxidase inhibition: significant peroxidase inhibition capabilities
